Assay results taken from paper PMC5712521, “Dendrogenin A drives LXR to trigger lethal autophagy in cancers” (Nature Communications, 2017).

How the values were obtained:
[1] = system: SKMEL-28 cells; assay: Immunoblot densitometry (LC3-II); type: cell-based, human; settings: 2.5 µM DDA; for LC3-II protein, densitometry relative to control: SKMEL-28, 24 h, 10 µM 22(R)HC, 100 nM TO; for LC3-II protein, densitometry relative to untreated / LC3-II protein, densitometry: 24 h
Procedure: (§1) Immunoblotting was carried out as described previously. Proteins were separated on SDS-PAGE gels, electro-transferred onto polyvinylidene difluoride membranes and incubated overnight at 4 °C with the following antibodies: anti-Atg3, anti-Atg5 (D1G9), anti-Atg7 (D12B11), anti-Beclin (D40C5), anti-caspase-3 (Cell Signaling), anti-Bcl-2 (Millipore), anti-Bax (Millipore), anti-LC3 (Sigma-Aldrich), anti-LXRα (SantaCruz), anti-LXRβ (SantaCruz), anti-Nur77 (Active motif), anti-NOR1 (R&D systems), anti-PARP (Cell Signaling), anti-Vps34 (Cell Signaling), or anti-Actin (Millipore). For visualization, an ECL plus kit (Amersham Biosciences) was used, and chemiluminescence was measured by autoradiography (Supplementary Fig. 9). Specific bands were quantified with ImageQuant software.

[2] = system: KG1 cells; assay: Immunoblot densitometry; type: cell-based, human; settings: 5 µM DDA; for LC3-II protein, densitometry relative to control: KG1, 24 h, 2 µM TO, 2 µM GW, 10 µM 22(R)HC
Procedure: as §1
Supplementary Fig. 6. […]
D ata from b, f, g, h, j, p, q ar e the m eans ± S.E.M. of 3 independent experiments performed in triplicate (*P<0.05, **P<0.01, ***P<0.001, t test). Images are representative of 3 independent experim ents.
Supplementary Fig. 7. a Im munoblots of Nur77 and NOR1 proteins in cells treated or not for 24 h with 5 µM DDA. b Real-time PCR of Nur77 and NOR1 expression in KG1 cells stably transfected with control shRNA (clone shCTRL) or with shRNA against LXRβ (clones sh3LXRβ and sh4LXRβ) and treated with 10 µM DDA for 24 h. c Immunoblots of Nur77 and NOR1 protein expression in KG1 cells stably transfected with control shRNA (clone shCTRL), shRNA against Nur77 (shNur77), shRNA against NOR1 (shNOR1), or shRNAs against both Nur77 and NOR1 (shNur77 + shNOR1). d NOD/SCID mice
(n=16- 20 mice/group) engrafted with KG1 cells or HL60 cells were treated with DDA (20 mg/kg/day, i.p.) or solvent vehicle (control). Tumor growth was monitored over time and was analyzed for significance using repeated measures ANOVA (***P<0.001). The mean tumor volumes ± SEM are shown. e Average tumor weight at the end of the experiments in d. *P<0.5, **P<0.01, ANOVA. f Mean tumor volumes measured at the end of the experiments for HL60 and KG1 graf ted into NOD/SCID or NMRI-Fo x1 -nude mice treated with DDA (40 mg/kg/day, p.o. or 20 mg/kg/day, i.p.) or solvent vehicle (control) (n=10- 20 mice per group). Values represent the means ± S.E.M. (**P<0.01, ***P<0.001, ANOVA). g Histochemical analysis of the expression of LC3 and P62 in HL60 tumor sections isolated from NOD/SCID mice treated or not with DDA (20 mg/kg/day, i.p.). h Quantification of LC3 punctate cells in shCTRL and shLXRβ KG1 tumors. i Quantification of DDA levels in tumors 4 h after the final administration of DDA. j Box plot of TCGA RNA-seq data from patients with melanoma showing that LXRβ is the predominant LXR isoform expressed.
***P<0.001. k, l Immunoblotting of the indicated proteins in primary AML cells exposed to vehicle or 5 µM DDA for 24 h. m, n qPCR analysis of the expression of Nur77 and NOR1 in primary AML cells from 10 patients exposed to vehicle or DDA for 24 h. Bars represent S.E.M. (**P<0.01, ***P<0.001, t test). Data from b, h, i represent means ± S.E.M. of triplicate samples (>100 cell analyses per sample), **P<0.01, ***P<0.001, t test. All data or images are representative of 3 independent experiments.

[3] = system: B16F10 cells; assay: RT-qPCR of LXR-responsive genes; type: cell-based, mouse; settings: 8 h, 2.5 µM DDA, 10 µM 22(R)HC, 1 µM GW, 100 nM TO, vs vehicle
Procedure: Total RNA was extracted from tumor cells or MEFs using an RNA Extraction kit (Qiagen) or Trizol (Invitrogen), respectively, and was quantified with NanoDrop. Complementary DNA (cDNA) synthesis was performed with 1 μg RNA iScript Reverse Transcriptase (Bio-Rad). 25 ng cDNA was amplified using SyBR Supermix (Bio-Rad). RNA expression of the different genes of interest (Supplementary Tables 1, 2) were determined using the ΔΔCT method, where the difference in the threshold cycle (ΔCT) values of the target gene and the housekeeping gene for each sample was normalized to the ΔCT value of the untreated sample.
Supplementary Fig. 4. a R egulat ion of LXR-responsive genes b y D DA and other k nown LXR
ligands in B16F10 and SKMEL- 28 cells transfected with s iRN A targeting LXRβ ( siLXRβ) or
with contro l siRN A scram ble (siSC). Cells were treated for 8 h with either solvent vehicle, 2.5
µM DD A, 10 µM 22(R) hydrox ycholesterol (22(R)HC), 1 µM GW 3965 (GW ) or 100 nM
T O901317 (T O). […]

CC(C)CCC[C@@H](C)[C@H]1CC[C@H]2[C@@H]3C[C@@H](NCCc4cnc[nH]4)[C@@]4(O)C[C@@H](O)CC[C@]4(C)[C@H]3CC[C@]12C [DDA, Dendrogenin A]
LC3-II protein, densitometry relative to control [1]: 2.5
LC3-II protein, densitometry relative to untreated ([1]; SKMEL-28 sh3LXRβ): 2.1
LC3-II protein, densitometry relative to untreated ([1]; SKMEL-28 sh4LXRβ): 2.6
LC3-II protein, densitometry relative to untreated ([1]; SKMEL-28 shCTRL): 5.5
LC3-II protein, densitometry ([1]; SKMEL-28 siATG7): 1.1
LC3-II protein, densitometry ([1]; SKMEL-28 siBECN1): 1.3
LC3-II protein, densitometry ([1]; SKMEL-28 siNOR1 + siNur77): 3.2
LC3-II protein, densitometry ([1]; SKMEL-28 siNOR1): 2.2
LC3-II protein, densitometry ([1]; SKMEL-28 siNur77): 1.8
LC3-II protein, densitometry ([1]; SKMEL-28 siVPS34): 1.2
LC3-II protein, densitometry relative to control [2]: 8.3
ATG3 protein, densitometry relative to vehicle ([2]; KG1, 24 h): 2.1
ATG5 protein, densitometry relative to vehicle ([2]; KG1, 24 h): 0.9
ATG7 protein, densitometry relative to vehicle ([2]; KG1, 24 h): 1.2
BECN1 protein, densitometry relative to vehicle ([2]; KG1, 24 h): 0.9
NOR1 protein, densitometry relative to untreated ([2]; KG1, 24 h): 3.1
Nur77 protein, densitometry relative to untreated ([2]; KG1, 24 h): 3.4
ABCA1 mRNA ([3]; B16F10, siCT): 0.4±0.1 fold
ABCG1 mRNA ([3]; B16F10, siCT): 1.4±0.1 fold
ABCG5 mRNA ([3]; B16F10, siCT): 3.5±0.1 fold
ABCG8 mRNA ([3]; B16F10, siCT): 1.6±0.2 fold
LC3A mRNA ([3]; B16F10, siCT): 2.4±0.2 fold
LC3B mRNA ([3]; B16F10, siCT): 1.7±0.1 fold
LDLR mRNA ([3]; B16F10, siCT): 4.2±0.2 fold
NOR1 mRNA ([3]; B16F10, siCT): 4.6±0.1 fold
Nur77 mRNA ([3]; B16F10, siCT): 6.8±0.2 fold
SCD1 mRNA ([3]; B16F10, siCT): 1.6±0.2 fold
SREBP1 mRNA ([3]; B16F10, siCT): 0.9±0.1 fold
SULT2b1b mRNA ([3]; B16F10, siCT): 1.6±0.1 fold
ABCA1 mRNA ([3]; B16F10, siLXRβ): 1.2±0.1 fold
ABCG1 mRNA ([3]; B16F10, siLXRβ): 0.9±0.1 fold
ABCG5 mRNA ([3]; B16F10, siLXRβ): 1.0±0.1 fold
ABCG8 mRNA ([3]; B16F10, siLXRβ): 1.2±0.1 fold
LC3A mRNA ([3]; B16F10, siLXRβ): 0.9±0.2 fold
LC3B mRNA ([3]; B16F10, siLXRβ): 1.0±0.2 fold
LDLR mRNA ([3]; B16F10, siLXRβ): 1.0±0.1 fold
NOR1 mRNA ([3]; B16F10, siLXRβ): 0.3±0.2 fold
Nur77 mRNA ([3]; B16F10, siLXRβ): 0.4±0.1 fold
SCD1 mRNA ([3]; B16F10, siLXRβ): 0.9±0.2 fold
SREBP1 mRNA ([3]; B16F10, siLXRβ): 0.9±0.2 fold
SULT2b1b mRNA ([3]; B16F10, siLXRβ): 0.8±0.1 fold

O=C(O)Cc1cccc(OCCCN(Cc2cccc(C(F)(F)F)c2Cl)CC(c2ccccc2)c2ccccc2)c1 [GW, GW3965]
LC3-II protein, densitometry relative to control [2]: 0.8
ABCA1 mRNA ([3]; B16F10, siCT): 14.3±1.6 fold
ABCG1 mRNA ([3]; B16F10, siCT): 2.1±0.4 fold
ABCG5 mRNA ([3]; B16F10, siCT): 1.9±0.5 fold
ABCG8 mRNA ([3]; B16F10, siCT): 1.7±0.2 fold
LC3A mRNA ([3]; B16F10, siCT): 1.1±0.1 fold
LC3B mRNA ([3]; B16F10, siCT): 1.1±0.1 fold
LDLR mRNA ([3]; B16F10, siCT): 2.0±0.1 fold
NOR1 mRNA ([3]; B16F10, siCT): 1.6±0.2 fold
Nur77 mRNA ([3]; B16F10, siCT): 1.0±0.3 fold
SCD1 mRNA ([3]; B16F10, siCT): 1.9±0.2 fold
SREBP1 mRNA ([3]; B16F10, siCT): 3.1±0.2 fold
SULT2b1b mRNA ([3]; B16F10, siCT): 1.2±0.1 fold
ABCA1 mRNA ([3]; B16F10, siLXRβ): 2.6±0.1 fold
ABCG1 mRNA ([3]; B16F10, siLXRβ): 1.1±0.2 fold
ABCG5 mRNA ([3]; B16F10, siLXRβ): 0.9±0.1 fold
ABCG8 mRNA ([3]; B16F10, siLXRβ): 0.9±0.1 fold
LC3A mRNA ([3]; B16F10, siLXRβ): 1.1±0.2 fold
LC3B mRNA ([3]; B16F10, siLXRβ): 1.1±0.3 fold
LDLR mRNA ([3]; B16F10, siLXRβ): 1.0±0.2 fold
NOR1 mRNA ([3]; B16F10, siLXRβ): 1.0±0.1 fold
Nur77 mRNA ([3]; B16F10, siLXRβ): 0.9±0.2 fold
SCD1 mRNA ([3]; B16F10, siLXRβ): 1.1±0.1 fold
SREBP1 mRNA ([3]; B16F10, siLXRβ): 1.1±0.2 fold
SULT2b1b mRNA ([3]; B16F10, siLXRβ): 1.0±0.1 fold

CC(C)CC[C@@H](O)[C@@H](C)[C@H]1CC[C@H]2[C@@H]3CC=C4C[C@@H](O)CC[C@]4(C)[C@H]3CC[C@]12C [22(R)HC, 22(R)-hydroxycholesterol]
LC3-II protein, densitometry relative to control [1]: 1
LC3-II protein, densitometry relative to control [2]: 1.5
ABCA1 mRNA ([3]; B16F10, siCT): 12.5±2.5 fold
ABCG1 mRNA ([3]; B16F10, siCT): 0.7±0.1 fold
ABCG5 mRNA ([3]; B16F10, siCT): 4.2±0.2 fold
ABCG8 mRNA ([3]; B16F10, siCT): 1.6±0.2 fold
LC3A mRNA ([3]; B16F10, siCT): 1.3±0.1 fold
LC3B mRNA ([3]; B16F10, siCT): 1.1±0.2 fold
LDLR mRNA ([3]; B16F10, siCT): 0.1±0.1 fold
NOR1 mRNA ([3]; B16F10, siCT): 2.2±0.3 fold
Nur77 mRNA ([3]; B16F10, siCT): 1.4±0.1 fold
SCD1 mRNA ([3]; B16F10, siCT): 1.1±0.2 fold
SREBP1 mRNA ([3]; B16F10, siCT): 2.2±0.2 fold
SULT2b1b mRNA ([3]; B16F10, siCT): 1.5±0.3 fold
ABCA1 mRNA ([3]; B16F10, siLXRβ): 4.2 ±0.9 fold
ABCG1 mRNA ([3]; B16F10, siLXRβ): 1.1±0.1 fold
ABCG5 mRNA ([3]; B16F10, siLXRβ): 2.0±0.5 fold
ABCG8 mRNA ([3]; B16F10, siLXRβ): 1.0±0.1 fold
LC3A mRNA ([3]; B16F10, siLXRβ): 1.0±0.3 fold
LC3B mRNA ([3]; B16F10, siLXRβ): 1.0±0.1 fold
LDLR mRNA ([3]; B16F10, siLXRβ): 1.1±0.1 fold
NOR1 mRNA ([3]; B16F10, siLXRβ): 0.9±0.2 fold
Nur77 mRNA ([3]; B16F10, siLXRβ): 0.8±0.2 fold
SCD1 mRNA ([3]; B16F10, siLXRβ): 1.2±0.3 fold
SREBP1 mRNA ([3]; B16F10, siLXRβ): 1.2±0.1 fold
SULT2b1b mRNA ([3]; B16F10, siLXRβ): 1.1±0.2 fold
